Legend:
[1] = system: patients with Raynaud's phenomenon; conditions: cited from earlier work
[2] = system: patient suffering from Raynaud's phenomenon secondary to chemotherapy; conditions: single patient; equipotent doses; cited from earlier work
[3] = system: vasospastic attacks and peripheral blood flow; conditions: oral 20 mg 2 or 3 times per week during 4 weeks; compared to pentoxifylline 600 mg b.i.d.; cited from earlier work
[4] = system: patients with scleroderma and lupus; conditions: in vivo; cited from earlier work
pig skin = experiment: Local cutaneous blood flow in pigs after topical application (laser Doppler); assay type: in vivo; conditions: for Local cutaneous blood flow, FLOW (MV), 10 min. after treatment / Local cutaneous blood flow, FLOW (MV), 20 min. after treatment / Local cutaneous blood flow, FLOW (MV), 30 min. after treatment / Local cutaneous blood flow, FLOW (MV), 60 min. after treatment / Local cutaneous blood flow, FLOW (MV), 120 min after treatment / Local cutaneous blood flow, FLOW (MV), 180 min. after treatment: topical
Method: A stable depth of sedation was maintained with continuous intravenous methohexital, titrated to a minimal lid reflex and a regular respiratory rate. Throughout the experiment, the animals spontaneously breathed through a “snout-cone” connected to a standard anesthesia machine delivering 100% oxygen. The dorsal surface of the animal was cleaned with tepid water. Ten sites (2×2 cm each) were defined on the dorsal surface of the animal with permanent marker. […] MAP was recorded at the start and end of each Doppler scan. A dose volume of 0.1 mL of vehicle, control, or test article was applied to each site. L-arginine monohydrate and sildenafil citrate were prepared in commercially available Veecogel Cream base formulation (available from PCCA, 9901 South […], Houston, Tex., USA) containing […], Coconut oil, Capryloic Acid, […], Squalane, Boric Acid, Polysorbate 80, Sorbitan Monooleate 80, Simethicone, Butylated hydroxytoluene. Sildenafil citrate 1% was dissolved in propylene glycol 2% and combine with base with constant mixing. L-arginine monohydrate 10% and 1% were dissolved in 2% propylene glycol and combined with the Veecogel described above. No two adjacent sites were administered the same concentration of any control or test article and administration was temporally spaced to allow at least 2 minutes between dosing each site. […] Applications were made in the same order and over the same time span as the baseline blood flow measurements. […] Blood flow at the untreated, control site was measured immediately prior to and immediately after the measurements at the treated sites. These two measurements were averaged to obtain the control blood flow for each interval. Serum levels of local drugs were not measured. Regional differences in blood flow were accounted for by normalizing the measurements of flow made after injection of a test solution to the baseline flow at the site prior to application. Changes in blood flow are expressed as a percent change from control blood flow. Variations in skin blood flow over the course of the experiment were accounted for by normalizing the changes in blood flow at a given site to the changes in blood flow at a control site. Thus, the change in cutaneous blood flow at a treatment site can be determined by the formula: [formula] where Sx is the blood flow at an injected site X min after application, So is the baseline flow at that site prior to application, Cx is the flow at the control site X min after the application, and Co is the blood flow at the control site at the same time that the baseline flow measurements were made.

[5] = system: hands of normal human volunteers; experiment: Skin temperature recovery of the hand after cold water immersion (infrared camera); assay type: in vivo; conditions: topical, acclimation at 25° C.
Method: The effects of L-arginine and sidelnafil citrate in the regulation of human blood flow was determined by measuring the rate of skin temperature recovery in the hands of normal human volunteers following a period of cold water immersion. The measurements were performed at room temperature 25° C., for a period of 30 minutes after acclimatization. L-arginine monohydrate and sildenafile citrate were prepared in commercially available Veecogel Cream base formulation containing Krisgel 100™, Coconut oil, Capryloic Acid, Triglicerides, Squalane, Boric Acid, Polysorbate 80, Sorbitan Monooleate 80, Simethicone, Butylated hydroxytoluene. Sildenafil citrate 1% was dissolved in propylene glycol 2% and combine with base with constant mixing. L-arginine monohydrate 10% and 1% were dissolve in 2% propylene glycol and combine with the Veecogel described above.
Skin temperature was measured with an infrared camera FLIR T300 (FLIR Systems, Inc., Boston, Mass., USA). Changes in skin temperature were determined after cooling of hand for 2 minutes in ice water by analyzing individual thermal images with FLIR Quick Report software. The effects of test drugs were determined following application of substance to the cooled hand. Thermal images of a patient receiving the control treatment and of a patient receiving the combination treatment were taken at 0, 5, and 15 minutes after treatment, and are shown in FIGS. 1A and 1B, respectively.

[6] = system: patients with Raynaud's phenomenon secondary to scleroderma; conditions: in vivo; cited from earlier work
[7] = system: primary Raynaud's symptoms; conditions: in vivo; cited from earlier work
[8] = system: patients with secondary Raynaud's phenomenon; conditions: oral 50 mg twice daily for 4 weeks, cited from earlier work
[9] = in vivo; cited from earlier work

For Cc1c(C)c2c(c(C)c1O)CC[C@@](C)(CCC[C@H](C)CCC[C@H](C)CCCC(C)C)O2 [α-tocopherol], the “Effects on blood flow parameters” value ([1]; comparator arm) is listed as “no effects on blood flow parameters”.
In the case of CN1CC(=O)N2[C@H](c3ccc4c(c3)OCO4)c3[nH]c4ccccc4c3C[C@@H]2C1=O [tadalafil, (6R,12aR)-2,3,6,7,12,12a-hexahydro-2-methyl-6-(3,4-methylenedioxyphenyl)-pyrazino[2′,1′:6,1]pyrido[3,4-b]indole-1,4-dione], the “Response of Raynaud's symptoms and capillary blood flow” value [2] is listed as “improved Raynaud's symptoms and increased capillary blood flow”, the “Peripheral blood flow at the end of the treatment period” value [3] is listed as “increased peripheral blood flow” and the “Vasospastic attack frequency and duration” value [3] is listed as “significant reduction in vasospastic attack frequency and duration”. For the same compound, the “Raynaud's symptoms” value [4] was “reduced Raynaud's symptoms”.
For N=C(N)NCCC[C@H](N)C(=O)O [Arginine, L-arginine], the “Effect on dermal blood flow” value (pig skin; topical application) was “increased dermal blood flow in a dose and time dependent manner”, the “Local cutaneous blood flow, FLOW (MV), 10 min. after treatment” value (pig skin; dose 1%) was 0.41 MV and the “Local cutaneous blood flow, FLOW (MV), 20 min. after treatment” value (pig skin; dose 1%) was 12.47 MV. The “Local cutaneous blood flow, FLOW (MV), 30 min. after treatment” value (pig skin; dose 1%) was 5.55 MV, the “Local cutaneous blood flow, FLOW (MV), 60 min. after treatment” value (pig skin; dose 1%) was 2.71 MV and the “Local cutaneous blood flow, FLOW (MV), 120 min after treatment” value (pig skin; dose 1%) was 7.91 MV. The “Local cutaneous blood flow, FLOW (MV), 180 min. after treatment” value (pig skin; dose 1%) was 10.26 MV, the “Local cutaneous blood flow, FLOW (MV), 10 min. after treatment” value (pig skin; dose 10%) was 19.82 MV and the “Local cutaneous blood flow, FLOW (MV), 20 min. after treatment” value (pig skin; dose 10%) was 21.88 MV. For the same compound, the “Local cutaneous blood flow, FLOW (MV), 30 min. after treatment” value (pig skin; dose 10%) was 22.07 MV, the “Local cutaneous blood flow, FLOW (MV), 60 min. after treatment” value (pig skin; dose 10%) was 38.45 MV and the “Local cutaneous blood flow, FLOW (MV), 120 min after treatment” value (pig skin; dose 10%) was 40.21 MV. The “Local cutaneous blood flow, FLOW (MV), 180 min. after treatment” value (pig skin; dose 10%) was 38.72 MV, the “Change in skin temperature from baseline, 1 min.” value ([5]; dose 10% W/v) was 2.5 °C and the “Change in skin temperature from baseline, 2 min.” value ([5]; dose 10% W/v) was 4 °C. For the same compound, the “Change in skin temperature from baseline, 5 min.” value ([5]; dose 10% W/v) was 5 °C, the “Change in skin temperature from baseline, 10 min.” value ([5]; dose 10% W/v) was 9.5 °C and the “Change in skin temperature from baseline, 15 min.” value ([5]; dose 10% W/v) was 11.5 °C.
In the case of CCCc1nn(C)c2c(=O)[nH]c(-c3cc(S(=O)(=O)N4CCN(C)CC4)ccc3OCC)nc12 [Sildenafil, 5-[2-ethoxy-5-(4-methyl-1-piperazinylsulphonyl)phenyl]-1-methyl-3-n-propyl-1,6-dihydro-7H-pyrazolo[4,3-d]pyrimidin-7-one], the “Patients with a reduction in pain and frequency of Raynaud's phenomenon attacks” value [6] is given as 80%, the “Patients with digital ulcer healing (of those with digital ulcers at baseline)” value [6] is given as 75% and the “Primary Raynaud's symptoms” value [7] is given as “failed to improve primary Raynaud's symptoms”. For the same compound, the “Response of Raynaud's symptoms and capillary blood flow” value [2] was “did not respond”, the “Increase in forearm blood flow” value ([1]; oral, after treatment) was 75% and the “Digital ulcers in patients who had digital ulcers at baseline” value [8] was “ulcer healing was observed”. The “Increase in mean capillary flow velocity” value [8] was “more than 4 fold”, the “Frequency and duration of Raynaud's attacks” value ([8]; compared to placebo) was “reduction in the frequency and duration of Raynaud's attacks compared to placebo” and the Half-life [9] was 3.8 h. For the same compound, the “Effect on blood flow” value (pig skin; topical concentration of 1% in Veecogel cream base) was “increased blood flow in the areas of application”, the “Local cutaneous blood flow, FLOW (MV), 10 min. after treatment” value (pig skin; dose 1%) was −10.31 MV and the “Local cutaneous blood flow, FLOW (MV), 20 min. after treatment” value (pig skin; dose 1%) was −3.51 MV. For the same compound, the “Local cutaneous blood flow, FLOW (MV), 30 min. after treatment” value (pig skin; dose 1%) was −1.57 MV, the “Local cutaneous blood flow, FLOW (MV), 60 min. after treatment” value (pig skin; dose 1%) was 1.58 MV and the “Local cutaneous blood flow, FLOW (MV), 120 min after treatment” value (pig skin; dose 1%) was 3.15 MV. For the same compound, the “Local cutaneous blood flow, FLOW (MV), 180 min. after treatment” value (pig skin; dose 1%) was 15.73 MV, the “Change in skin temperature from baseline, 1 min.” value ([5]; dose 1% W/v) was 1 °C and the “Change in skin temperature from baseline, 2 min.” value ([5]; dose 1% W/v) was 4 °C. For the same compound, the “Change in skin temperature from baseline, 5 min.” value ([5]; dose 1% W/v) was 6.5 °C, the “Change in skin temperature from baseline, 10 min.” value ([5]; dose 1% W/v) was 8.5 °C and the “Change in skin temperature from baseline, 15 min.” value ([5]; dose 1% W/v) was 12.5 °C.

From patent publication US20180036314A1, “METHODS AND COMPOSITIONS FOR TREATING PERIPHERAL VASCULAR DISEASE” (Exodos Life Sciences Limited Partnership, priority 2009, published 2018)
